The subject of this assay is 22Rv1. Put plainly: 22Rv1 cell proliferation assay (Experimental Example 1, cell count). It is filed as cell-based. The note with it: Homo sapiens, 22Rv1, read-out: 22Rv1 cell count decrease at 10 μM for 48 hours; 10 μM (method: four days); read-out: 22Rv1 cell count decrease at 10 μM. As to the method:
The human prostate cancer cell line, 22Rv1 has been reported to express a high level of AR-V7. […] Standard culture media was RPMI-1640 supplemented with 10% fetal bovine serum. The test compound initially was dissolved in DMSO at 50 mM. This stock solution was then diluted as needed for the indicated concentrations. […]
In the Table: (+)—the cell count decreased between 0 and 20%; (++)—the cell count decreased […]; (+++)—the cell count decreased by more than 50%.
Consider `O=C(COc1cccc2c1C(=O)N(C1CCC(=O)NC1=O)C2=O)NCCOCCOCCNC(=O)COc1c(-c2csc(N3CCOCC3)n2)ccc(F)c1F` (stereo not shown) [Example 10, 2-(2,3-difluoro-6-(2-morpholinothiazol-4-yl)phenoxy)-N-(2-(2-(2-(2-((2-(2,6-dioxopiperidin-3-yl)-1,3-dioxoisoindolin-4-yl)oxy)acetamido)ethoxy)ethoxy)ethyl)acetamide], for which the inhibition at 10 µM is 0 to 20%.
For `Cc1ncsc1-c1ccc([C@H](CC(=O)NCCCCNC(=O)COc2c(-c3csc(N4CCOCC4)n3)ccc(F)c2F)NC(=O)[C@@H]2C[C@@H](O)CN2C(=O)[C@@H](NC(=O)C2(F)CC2)C(C)(C)C)cc1` [Example 22, (2S,4R)-N-((S)-3-((4-(2-(2,3-difluoro-6-(2-morpholinothiazol-4-yl)phenoxy)acetamido)butyl)amino)-1-(4-(4-methylthiazol-5-yl)phenyl)-3-oxopropyl)-1-((S)-2-(1-fluorocyclopropane-1-carboxamido)-3,3-dimethylbutanoyl)-4-hydroxypyrrolidine-2-carboxamide] the value was 0 to 20%; for `Cc1ncsc1-c1ccc([C@H](C)NC(=O)[C@@H]2C[C@@H](O)CN2C(=O)[C@@H](NC(=O)COCCOCCNC(=O)COc2c(-c3csc(N4CCOCC4)n3)ccc(F)c2F)C(C)(C)C)cc1` [Example 20, (2S,4R)-1-((S)-2-(tert-butyl)-14-(2,3-difluoro-6-(2-morpholinothiazol-4-yl)phenoxy)-4,13-dioxo-6,9-dioxa-3,12-diazatetradecanoyl)-4-hydroxy-N-((S)-1-(4-(4-methylthiazol-5-yl)phenyl)ethyl)pyrrolidine-2-carboxamide], below 50%.
For `O=C(COc1cccc2c1C(=O)N(C1CCC(=O)NC1=O)C2=O)NCCCCCCCCNC(=O)COc1c(-c2csc(N3CCOCC3)n2)ccc(F)c1F` (stereo not shown) [Example 8, 2-(2,3-difluoro-6-(2-morpholinothiazol-4-yl)phenoxy)-N-(8-(2-((2-(2,6-dioxopiperidin-3-yl)-1,3-dioxoisoindolin-4-yl)oxy)acetamido)octyl)acetamide] the value was 0 to 20%.
The result for `Cc1ncsc1-c1ccc([C@H](C)NC(=O)[C@@H]2C[C@@H](O)CN2C(=O)[C@@H](NC(=O)CCCCCCCOc2c(-c3csc(N4CCOCC4)n3)ccc(F)c2F)C(C)(C)C)cc1` [Example 21, (2S,4R)-1-((S)-2-(8-(2,3-difluoro-6-(2-morpholinothiazol-4-yl)phenoxy)octanamido)-3,3-dimethylbutanoyl)-4-hydroxy-N-((S)-1-(4-(4-methylthiazol-5-yl)phenyl)ethyl)pyrrolidine-2-carboxamide] reads below 50%; that for `Cc1ncsc1-c1ccc([C@H](C)NC(=O)[C@@H]2C[C@@H](O)CN2C(=O)[C@@H](NC(=O)COCCCNC(=O)COc2c(-c3csc(N4CCOCC4)n3)ccc(F)c2F)C(C)(C)C)cc1` [Example 19, (2S,4R)-1-((S)-2-(2-(3-(2-(2,3-difluoro-6-(2-morpholinothiazol-4-yl)phenoxy)acetamido)propoxy)acetamido)-3,3-dimethylbutanoyl)-4-hydroxy-N-((S)-1-(4-(4-methylthiazol-5-yl)phenyl)ethyl)pyrrolidine-2-carboxamide], below 50%.
For `O=C(COc1c(-c2csc(N3CCOCC3)n2)ccc(F)c1F)NCCOCCOCCOCCOCCNc1cccc2c1C(=O)N(C1CCC(=O)NC1=O)C2=O` (stereo not shown) [Example 6, 2-(2,3-difluoro-6-(2-morpholinothiazol-4-yl)phenoxy)-N-(14-((2-(2,6-dioxopiperidin-3-yl)-1,3-dioxoisoindolin-4-yl)amino)-3,6,9,12-tetraoxatetradecyl)acetamide], the inhibition at 10 µM lay within 0 to 20%.
